In patent US4639510A, “(1-S-acetamidomethyl cysteine, 7-alanine)calcitonin” (Armour Pharmaceutical Company, priority 1985, dated 1987):

Tested on: serum calcium concentration
Experiment: Biological assay of calcitonin analogs in vivo: reduction of serum calcium concentration vs synthetic salmon calcitonin standard
Design: species or system Rats
Protocol: Biological Assay Of Calcitonin Analogs In Vivo
The biological potency of [S-Acm-Cys',Ala^7 ]salmon calcitonin was determined by comparing the reduction of serum calcium concentration which followed administration by graded doses of [S-Acm-Cys^1,Ala^7 ]SCT and synthetic salmon calcitonin standard. Rats were divided into four groups of seven animals, and each group was assigned at random to a dose of standard or test solution. Low and high doses were chosen from the linear portion of the dose-response curve. For the salmon calcitonin standard, the values were 0.7 and 2.1 mcg. peptide/100 g. body weight (BW). This dose approximates 3 and 9 MU/100 g. BW. Peptides were given by subcutaneous injection (0.2 ml/100 g. BW) and blood was withdrawn 1 hour later for serum calcium determination. Sera are processed and analyzed within two hours of collection. […]. Results were analyzed by a 2×2 parallel line assay [Gaddum, J. H., J. Pharm. Pharmacol., 6, 345 (1953)]. The standard salmon calcitonin used was independently determined to contain greater than 4,000 IU/mg. [S-Acm-Cys^1,Ala^7 ]SCT assayed at 6300 IU/mg, (95% 5800-6900).

Row | Substance | biological potency (rats, subcutaneous injection, serum calcium 1 hour later, 2×2 parallel line assay vs salmon calcitonin standard, 95% 5800-6900) | biological potency of the standard (independently determined content) (standard salmon calcitonin used in the assay, independently determined)
1 | [S-Acm-Cys^1,Ala^7)]salmon calcitonin [[S-Acm-Cys^1,Ala^7]SCT] | 6300 IU/mg | 
2 | Salmon calcitonin |  | greater than 4,000 IU/mg
